From patent US10517889B2, “Modulators of SMAD7 expression” (Ionis Pharmaceuticals, Inc., priority 2017, dated 2019)
Strand notation (5' to 3'): a small letter for the sugar, then the base; units joined by * are phosphorothioate-linked, units joined directly phosphodiester-linked; [ ] holds rarer units or linkages, { } end groups; capitals alone tell only the bases. k = constrained ethyl (cEt); [5mC] = 5-methylcytosine; d = 2'-deoxy (DNA)

The substances below were run on human SMAD7 mRNA (assay: Antisense inhibition of human SMAD7 mRNA expression in Hep3B cells by 3-10-3 cEt gapmers, 10,000 nM, electroporation (Example 2)). Details: Hep3B cells, electroporation with 10,000 nM antisense oligonucleotide, approximately 24 hours, SMAD7 mRNA by RT-PCR (RTS5062), relative to untreated control cells.
Format: cell-based
In short: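 Hep3B cells (20,000 per well) were electroporated with 10,000 nM 16-mer 3-10-3 cEt gapmer (phosphorothioate, 5-methylcytosine). After about 24 h, SMAD7 mRNA was quantified by qRT-PCR with primer probe set RTS5062, normalised to RIBOGREEN total RNA, and expressed as percent inhibition versus untreated cells.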

| Substance | % Inhibition |
| --- | --- |
| 798766 (k[5mC]*kT*kG*dA*dA*d[5mC]*dA*d[5mC]*dT*dT*dT*dG*d[5mC]*kA*k[5mC]*kA; antisense) [compound 798766] | 34% |
| 798767 (kT*k[5mC]*k[5mC]*dG*dG*d[5mC]*d[5mC]*dA*d[5mC]*d[5mC]*dT*dG*dA*kA*k[5mC]*kA; antisense) [compound 798767] | 0% |
| 798768 (kG*kA*kG*dA*dT*d[5mC]*d[5mC]*dG*dG*d[5mC]*d[5mC]*dA*d[5mC]*k[5mC]*kT*kG; antisense) [compound 798768] | 42% |
| 798769 (k[5mC]*k[5mC]*kT*dG*dA*dG*dA*dT*d[5mC]*d[5mC]*dG*dG*d[5mC]*k[5mC]*kA*k[5mC]; antisense) [compound 798769] | 58% |
| 798770 (kA*kG*kG*dA*dA*dT*dG*d[5mC]*d[5mC]*dT*dG*dA*dG*kA*kT*k[5mC]; antisense) [compound 798770] | 47% |
| 798771 (k[5mC]*k[5mC]*kG*dA*dG*dG*dA*dA*dT*dG*d[5mC]*d[5mC]*dT*kG*kA*kG; antisense) [compound 798771] | 62% |
| 798772 (k[5mC]*kT*kT*d[5mC]*d[5mC]*dG*dA*dG*dG*dA*dA*dT*dG*k[5mC]*k[5mC]*kT; antisense) [compound 798772] | 48% |
| 798782 (kT*kG*k[5mC]*dA*dG*d[5mC]*dA*d[5mC]*dA*d[5mC]*d[5mC]*dA*dG*k[5mC]*kT*k[5mC]; antisense) [compound 798782] | 51% |
| 798783 (k[5mC]*kG*kG*d[5mC]*dT*dA*dA*dG*dG*dT*dG*dA*dT*kG*kG*kG; antisense) [compound 798783] | 45% |
| 798784 (kG*kA*kG*dT*d[5mC]*dG*dG*d[5mC]*dT*dA*dA*dG*dG*kT*kG*kA; antisense) [compound 798784] | 35% |

Same assay, conditions: Hep3B cells, electroporation with 10,000 nM antisense oligonucleotide, approximately 24 hours, primer probe set RTS5062, relative to untreated control cells

| Substance | % inhibition of SMAD7 mRNA expression |
| --- | --- |
| 798773 (kT*kG*kA*d[5mC]*dT*dT*d[5mC]*d[5mC]*dG*dA*dG*dG*dA*kA*kT*kG; antisense) [compound 798773] | 40% |
| 798774 (kT*kT*kG*dA*d[5mC]*dT*dT*d[5mC]*d[5mC]*dG*dA*dG*dG*kA*kA*kT; antisense) [compound 798774] | 12% |
| 798775 (k[5mC]*k[5mC]*kT*d[5mC]*dT*dT*dG*dA*d[5mC]*dT*dT*d[5mC]*d[5mC]*kG*kA*kG; antisense) [compound 798775] | 0% |
| 798776 (kA*k[5mC]*kA*d[5mC]*dA*dG*d[5mC]*d[5mC]*dT*d[5mC]*dT*dT*dG*kA*k[5mC]*kT; antisense) [compound 798776] | 34% |
| 798777 (kG*k[5mC]*kA*dA*d[5mC]*dA*d[5mC]*dA*dG*d[5mC]*d[5mC]*dT*d[5mC]*kT*kT*kG; antisense) [compound 798777] | 20% |
| 798778 (k[5mC]*kA*k[5mC]*dA*dG*d[5mC]*dA*dA*d[5mC]*dA*d[5mC]*dA*dG*k[5mC]*k[5mC]*kT; antisense) [compound 798778] | 64% |
| 798779 (kA*kT*kT*d[5mC]*dA*d[5mC]*dA*dG*d[5mC]*dA*dA*d[5mC]*dA*k[5mC]*kA*kG; antisense) [compound 798779] | 31% |
| 798780 (kA*kA*kG*dA*dT*dT*d[5mC]*dA*d[5mC]*dA*dG*d[5mC]*dA*kA*k[5mC]*kA; antisense) [compound 798780] | 58% |
| 798785 (k[5mC]*kT*kA*dG*dT*dT*d[5mC]*dG*d[5mC]*dA*dG*dA*dG*kT*k[5mC]*kG; antisense) [compound 798785] | 0% |
| 798786 (kA*k[5mC]*kT*d[5mC]*dT*dA*dG*dT*dT*d[5mC]*dG*d[5mC]*dA*kG*kA*kG; antisense) [compound 798786] | 11% |
| 798787 (kG*kA*kG*dA*d[5mC]*dT*d[5mC]*dT*dA*dG*dT*dT*d[5mC]*kG*k[5mC]*kA; antisense) [compound 798787] | 20% |
